The source made the active and inactive calls. The rule behind the calls is not given here.
Experiments:
[1] = Antiviral activity against Influenza A virus (A/Thailand/Kan353/2004(H5N1)) co-expressing NA plasmid infected in 293T cells assessed as inhibition of viral entry incubated for 30 mins followed by addition of cells measured after 48 hrs by luciferase reporter gene assay; assay type: functional, cell-based; details: HEK-293T
[2] = Cytotoxicity against MDCK cells after 2 days by MTT assay; assay type: cell-based, Canis lupus familiaris; details: dog
[3] = Selectivity index, ratio of CC50 for MDCK cells to IC50 for Influenza A virus (A/Thailand/Kan353/2004(H5N1); assay type: toxicity; details: dog, read-out: Ratio CC50/IC50
[4] = test system: Human immunodeficiency virus 1; test: Antiviral activity against VSV-g pseudotyped HIV1 infected in 293T cells cotransfected with HA and NA plasmid incubated for 30 mins followed by addition of cells measured after 48 hrs by luciferase reporter gene assay; assay type: functional, cell-based
Influenza A virus = test: Inhibition of Influenza A virus H5N1 neuraminidase N1 subtype at 20 uM/L after 30 mins by fluorescence assay
[5] = test system: Influenza A virus (A/Puerto Rico/8/1934(H1N1)); test: Inhibition of Influenza A virus (A/Puerto Rico/8/34(H1N1)) […] hemagglutination of chicken RBC at 20 uM incubated for 1 hr followed by chicken RBC addition measured for 10 mins
[6] = (§1) Binding affinity to Influenza A virus (A/Vietnam/1194/2004(H5N1)) His-tagged hemagglutinin after 250 secs by SPR analysis
[7] = test system: Influenza A virus (A/Vietnam/1194/2004(H5N1)); test: as §1
[8] = (§2) Binding affinity to Influenza A virus (A/Viet Nam/1203/2004(H5N1)) Fc-tagged hemagglutinin 2 after 250 secs by SPR analysis
[9] = test system: Influenza A virus (A/Viet Nam/1203/2004(H5N1)); test: as §2
[10] = target: Peptidyl-prolyl cis-trans isomerase FKBP1A (Homo sapiens) (UniProt P62942); test: Binding affinity to FKBP12 (unknown origin) after 250 secs by SPR analysis
Sequence of Peptidyl-prolyl cis-trans isomerase FKBP1A (Homo sapiens) (P62942 whole entry): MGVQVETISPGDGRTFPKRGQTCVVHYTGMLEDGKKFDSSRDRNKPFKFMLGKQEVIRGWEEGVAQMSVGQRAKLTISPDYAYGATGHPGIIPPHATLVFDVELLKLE

Row | Compound | IC50 [1] | CC50 at 48 h [2] | selectivity ratio [3] | Activity [4] | inhibition (Influenza A virus) | inhibition [5] | Kd [6] | Activity [7] | Kd [8] | Activity [9] | Activity [10]
1 | C[C@@H]1O[C@H](O[C@H]2[C@H](O[C@H]3CC[C@]4(C)[C@H]5CC=C6[C@@H]7CC(C)(C)CC[C@]7(C(=O)OCc7ccccc7)CC[C@@]6(C)[C@]5(C)CC[C@H]4C3(C)C)O[C@H](CO)[C@@H](O[C@H]3O[C@@H](C)[C@@H](O)[C@@H](O)[C@@H]3O)[C@@H]2O)[C@@H](O)[C@H](O)[C@@H]1O | 8.65 µM | 27.4 µM | 3.2 | inactive | inactive | – | – | – | – | – | –
2 | COC(=O)[C@]12CCC(C)(C)C[C@H]1C1=CC[C@@H]3[C@@]4(C)CC[C@@H](O[C@@H]5O[C@H](CO)[C@@H](O[C@@H]6O[C@@H](C)[C@H](O)[C@@H](O)[C@H]6O)[C@H](O)[C@H]5O[C@@H]5O[C@@H](C)[C@H](O)[C@@H](O)[C@H]5O)C(C)(C)[C@@H]4CC[C@@]3(C)[C@]1(C)CC2 | 5.06 µM | > 200 µM | > 40 | – | – | – | – | – | – | – | –
3 | CC1(C)CC[C@]2(C(=O)OCc3ccccc3)CC[C@]3(C)C(=CC[C@@H]4[C@@]5(C)CC[C@H](O[C@@H]6O[C@H](CO)[C@@H](O[C@@H]7OC[C@@H](O)[C@@H](O)[C@@H]7O)[C@H](O)[C@H]6O[C@@H]6OC[C@@H](O)[C@@H](O)[C@@H]6O)C(C)(C)[C@@H]5CC[C@]43C)[C@@H]2C1 | > 50 µM | 48.2 µM | < 1 | – | – | – | – | – | – | – | –
4 | C[C@@H]1O[C@@H](O[C@H]2[C@H](O[C@H]3CC[C@]4(C)[C@H]5C(=O)C=C6[C@@H]7CC(C)(C)CC[C@]7(C(=O)OCc7ccccc7)CC[C@@]6(C)[C@]5(C)CC[C@H]4C3(C)C)O[C@H](CO)[C@@H](O[C@@H]3O[C@@H](C)[C@H](O)[C@@H](O)[C@H]3O)[C@@H]2O)[C@H](O)[C@H](O)[C@H]1O | 4.05 µM | 92.7 µM | 22.9 | inactive | inactive | inactive | 0.0617 µM | Dose-dependent effect | 0.00386 µM | Dose-dependent effect | inactive
5 | C[C@@H]1O[C@@H](O[C@H]2[C@H](O[C@@H]3CC[C@]4(C)[C@H]5CC=C6[C@@H]7CC(C)(C)CC[C@]7(C(=O)OCc7ccccc7)CC[C@@]6(C)[C@]5(C)CC[C@H]4C3(C)C)O[C@H](CO)[C@@H](O[C@@H]3O[C@@H](C)[C@H](O)[C@@H](O)[C@H]3O)[C@@H]2O)[C@H](O)[C@H](O)[C@H]1O | 5.88 µM | > 200 µM | > 34 | inactive | inactive | – | 0.443 µM | Dose-dependent effect | 0.000553 µM | Dose-dependent effect | inactive
6 | C[C@H]1O[C@H](O[C@H]2[C@H](O[C@H]3CC[C@]4(C)[C@H]5CC=C6[C@@H]7CC(C)(C)CC[C@]7(C(=O)OCc7ccccc7)CC[C@@]6(C)[C@]5(C)CC[C@H]4C3(C)C)O[C@H](CO)[C@@H](O[C@H]3O[C@H](C)[C@@H](O)[C@H](O)[C@@H]3O)[C@@H]2O)[C@@H](O)[C@@H](O)[C@@H]1O | > 50 µM | 52.4 µM | < 1 | – | – | – | – | – | – | – | –
7 | COC(=O)[C@]12CCC(C)(C)C[C@H]1C1=CC[C@@H]3[C@@]4(C)CC[C@H](O[C@@H]5O[C@H](CO)[C@@H](O[C@@H]6O[C@@H](C)[C@H](O)[C@@H](O)[C@H]6O)[C@H](O)[C@H]5O[C@@H]5O[C@@H](C)[C@H](O)[C@@H](O)[C@H]5O)C(C)(C)[C@@H]4CC[C@@]3(C)[C@]1(C)CC2 | 4.74 µM | – | 3.6 | – | – | – | – | – | – | – | –
8 | CC1(C)CC[C@]2(C(=O)OCc3ccccc3)CC[C@]3(C)C(=CC[C@@H]4[C@@]5(C)CC[C@H](O[C@@H]6O[C@H](CO)[C@@H](O[C@@H]7OC[C@H](O)[C@H](O)[C@H]7O)[C@H](O)[C@H]6O[C@@H]6OC[C@H](O)[C@H](O)[C@H]6O)C(C)(C)[C@@H]5CC[C@]43C)[C@@H]2C1 | > 50 µM | 26.4 µM | < 1 | – | – | – | – | – | – | – | –
9 | C[C@@H]1O[C@@H](O[C@H]2[C@H](O[C@H]3CC[C@]4(C)[C@H]5CC=C6[C@@H]7CC(C)(C)CC[C@]7(C(=O)OCc7ccccc7)CC[C@@]6(C)[C@]5(C)CC[C@H]4C3(C)C)O[C@H](CO)[C@@H](O[C@@H]3O[C@@H](C)[C@H](O)[C@@H](O)[C@H]3O)[C@@H]2O)[C@H](O)[C@H](O)[C@H]1O | 4.82 µM | 23.5 µM | 4.9 | – | – | – | – | – | – | – | –
10 | COC(=O)[C@]12CCC(C)(C)C[C@H]1C1=CC[C@@H]3[C@@]4(C)CC[C@H](O[C@@H]5O[C@H](CO)[C@@H](O)[C@H](O[C@@H]6O[C@@H](C)[C@H](O)[C@@H](O)[C@H]6O)[C@H]5O[C@@H]5O[C@@H](C)[C@H](O)[C@@H](O)[C@H]5O)C(C)(C)[C@@H]4CC[C@@]3(C)[C@]1(C)CC2 | > 50 µM | 22.4 µM | < 1 | – | – | – | – | – | – | – | –
11 | CC1(C)CC[C@]2(C(=O)OCc3ccccc3)CC[C@]3(C)C(=CC[C@@H]4[C@@]5(C)CC[C@H](O[C@@H]6O[C@H](CO)[C@@H](O[C@H]7OC[C@@H](O)[C@H](O)[C@H]7O)[C@H](O)[C@H]6O[C@H]6OC[C@@H](O)[C@H](O)[C@H]6O)C(C)(C)[C@@H]5CC[C@]43C)[C@@H]2C1 | > 50 µM | 20.8 µM | < 1 | – | – | – | – | – | – | – | –
12 | COC(=O)[C@]12CCC(C)(C)C[C@H]1C1=CC[C@@H]3[C@@]4(C)CC[C@H](O[C@@H]5O[C@H](CO)[C@H](O[C@H]6O[C@H](C)[C@@H](O)[C@H](O)[C@@H]6O)[C@H](O)[C@H]5O[C@H]5O[C@H](C)[C@@H](O)[C@H](O)[C@@H]5O)C(C)(C)[C@@H]4CC[C@@]3(C)[C@]1(C)CC2 | 11.1 µM | 45.6 µM | 4.1 | – | – | – | – | – | – | – | –
13 | COC(=O)[C@]12CCC(C)(C)C[C@H]1C1=CC(=O)[C@@H]3[C@@]4(C)CC[C@H](O[C@@H]5O[C@H](CO)[C@@H](O[C@@H]6O[C@@H](C)[C@H](O)[C@@H](O)[C@H]6O)[C@H](O)[C@H]5O[C@@H]5O[C@@H](C)[C@H](O)[C@@H](O)[C@H]5O)C(C)(C)[C@@H]4CC[C@@]3(C)[C@]1(C)CC2 | 4.1 µM | 33.8 µM | 8.3 | – | – | – | – | – | – | – | –
14 | COC(=O)[C@]12CCC(C)(C)C[C@H]1C1=CC[C@@H]3[C@@]4(C)CC[C@H](O[C@@H]5O[C@H](CO)[C@@H](O)[C@H](O[C@@H]6O[C@@H](C)[C@H](O)[C@@H](O)[C@H]6O)[C@H]5O)C(C)(C)[C@@H]4CC[C@@]3(C)[C@]1(C)CC2 | > 50 µM | 25.3 µM | < 1 | – | – | – | – | – | – | – | –
15 | COC(=O)[C@]12CCC(C)(C)C[C@H]1C1=CC[C@@H]3[C@@]4(C)CC[C@H](O[C@@H]5O[C@H](CO)[C@@H](O)[C@H](O)[C@H]5O[C@@H]5O[C@@H](C)[C@H](O)[C@@H](O)[C@H]5O)C(C)(C)[C@@H]4CC[C@@]3(C)[C@]1(C)CC2 | 16.3 µM | 23.6 µM | 1.4 | – | – | – | – | – | – | – | –
16 | C[C@H]1O[C@H](O[C@@H]2[C@H](O)[C@@H](O[C@H]3O[C@H](C)[C@@H](O)[C@H](O)[C@@H]3O)[C@H](O[C@H]3CC[C@]4(C)[C@H]5CC=C6[C@@H]7CC(C)(C)CC[C@]7(C(=O)OCc7ccccc7)CC[C@@]6(C)[C@]5(C)CC[C@H]4C3(C)C)O[C@@H]2CO)[C@@H](O)[C@@H](O)[C@@H]1O | 9.36 µM | 82.4 µM | 8.8 | – | – | – | – | – | – | – | –
17 | O=C(NCCN1CCCCC1)c1cc(F)cc(C(F)(F)F)c1 | 4.45 µM | – | 332 | – | – | – | – | – | – | – | –

Reference: ChEMBL document CHEMBL4052707, “Structure-activity relationships of 3-O-β-chacotriosyl oleanic acid derivatives as entry inhibitors for highly pathogenic H5N1 influenza virus” (Bioorg Med Chem, 2017)
